Data as given in patent US5866611A, “Therapeutic amines” (Zeneca Limited, priority 1993, dated 1999).
Structures can show the parent of a compound that is named as a salt.

Key:
Squalene synthase = assay: Inhibition of Squalene synthase; type: biochemical; conditions: rat liver microsomal protein, 15 min, 37° C.
Procedure: (a) Inhibition of Squalene synthase
In this test, the ability of a compound to prevent the formation of squalene from a radioactive substrate (tritiated farnesyl pyrophosphate) is assessed.
The test compound is incubated at a concentration of 25 micromolar in 200 μl of a buffered solution containing potassium phosphate (50 mM), MgCl2 (4.95 mM), KF (9.9 mM), NADPH (0.9 mM) and rat liver microsomal protein (20 μg). Rat liver microsomes are prepared by the method described in published European Patent Application No. 324,421 and stored in liquid nitrogen prior to assay. Assay vials are kept at 37° C. throughout the incubation.
The reaction is started with the addition of the substrate (1-[^3 H]-farnesyl pyrophosphate), final concentration […], and stopped after 15 minutes reaction time with the addition of 50 μl of 4% KOH. The reaction products are separated from unreacted substrate after application to a C-18 octadecyl 1ccBond column (Analytichem Int product No. 617101). An aqueous fraction is eluted with 250 μl of 0.1M KOH. Squalene is then eluted with 1.0 ml 10% ethylacetate in hexane and radioactivity determined. The difference in radioactivity in the presence and absence of the test compound is used to determine the level of inhibition. […] The IC50 can then be determined from a plot of percentage inhibition against concentration of test compound.

[1] = tested on: de novo hepatic cholesterol synthesis; assay: Acute rat cholesterol synthesis assay; conditions: acute in vivo, female rats, 14C-acetate ip, plasma cholesterol specific radioactivity, route for this compound not given
Procedure: (b) Acute rat cholesterol synthesis assay.
This is an acute in vivo test in the rat to measure de novo hepatic cholesterol synthesis from exogenously administered ^14 C-acetate.
Female rats (35-55 g) are housed in reverse lighting conditions (red light from 0200 h-1400 h) for a period of about 2 weeks prior to test. Animals are allowed free access to chow and drinking water throughout this period. At test, animals should weigh 125-150 g.
Test compounds may be administered by oral gavage, dissolved or suspended in 0.5% polysorbate, or by ip or iv dosing. Control animals receive vehicle alone. After 1 hour the rats are injected ip with 25 μCi [2-^14 C]-acetate (NEN DUPONT. specific activity, 45-60mCi/mmol NEC-085H, or AMERSHAN specific activity, 50-60 mCi/mmol CFA 14) in a volume of 0.25 ml saline (100 μCi/ml). After a further hour, rats are terminally anaesthetised with halothane and a blood sample obtained from the abdominal vena cava.
1ml of plasma is lyophilised and then saponified in 2ml ethanolic KOH (1 part 33% KOH, 9 parts ethanol) at […] for 2 hours. After addition of an equal quantity of water, non-saponifiable lipids are extracted with two 5ml volumes of hexane. The hexane extracts are evaporated to dryness and the residues dissolved in ethanol to determine cholesterol specific radioactivity. ED50 values can be determined in the standard way.

Row | Compound | inhibition of squalene synthase (Squalene synthase; at 2.5 μM) | ED50 [1] | inhibition of squalene synthase (Squalene synthase; at a concentration of 25 μM)
1 | CCCc1cc(NC(C)=O)ccc1OCCCNC(C)C [Example 95, 3-n-propyl-4-(3-[N-isopropylamino]propoxy)-acetanilide hydrochloride] | about 86% | 27 mg/kg | 
2 | CCCCOc1ccc(OCCCNC(C)C)c(CCC)c1 [Example 2, N-isopropyl-3-(4-butoxy-2-propylphenoxy)propylamine] |  |  | about 74%
